Two molecules from publication PMC12655445, “In Vitro and In Vivo Effects of Resveratrol on Rat Hepatic CYP1A2” (Pharmaceuticals, 2025) can be followed below.

The target in data set [1] is T1, rat liver microsomal CYP1A2 (Rattus norvegicus, UniProt P04799).
T1 construct: rat liver microsomes
T1 sequence (P04799 2-513): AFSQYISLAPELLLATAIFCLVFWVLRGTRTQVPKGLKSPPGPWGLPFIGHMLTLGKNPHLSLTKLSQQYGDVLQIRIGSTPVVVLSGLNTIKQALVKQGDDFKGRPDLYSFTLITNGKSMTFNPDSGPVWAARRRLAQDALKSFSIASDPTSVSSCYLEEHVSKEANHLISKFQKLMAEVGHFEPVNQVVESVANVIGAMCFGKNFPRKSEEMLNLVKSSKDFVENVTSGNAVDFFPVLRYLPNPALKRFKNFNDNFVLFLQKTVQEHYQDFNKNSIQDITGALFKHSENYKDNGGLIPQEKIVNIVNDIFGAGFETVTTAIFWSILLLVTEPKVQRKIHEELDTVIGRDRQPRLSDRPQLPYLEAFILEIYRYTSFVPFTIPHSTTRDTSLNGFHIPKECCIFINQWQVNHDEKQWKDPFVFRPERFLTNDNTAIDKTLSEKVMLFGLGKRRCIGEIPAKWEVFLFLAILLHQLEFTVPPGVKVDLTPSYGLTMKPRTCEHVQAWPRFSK
The data set can be described thus: MROD fluorescence assay in rat liver microsomes, inhibition kinetics (IC50 […]). In kind it is biochemical. Background: Liver microsomes are a subcellular fraction often used to study metabolism.

Substrate in data set [2]: COc1ccc2nc3ccc(=O)cc-3oc2c1
The data set can be described thus: MROD kinetics with recombinant CYP1A2 membranes; value is Km. In kind it is biochemical, Homo sapiens. Particulars: heme; NADPH.

As to `Oc1ccc(/C=C/c2cc(O)cc(O)c2)cc1` [RSV, trans-3,4′,5-trihydroxystilbene], affinity in data set [1] was put at a Ki of 49.1 µM. This counts as double-digit micromolar.

B1: human recombinant CYP1A2 (Homo sapiens) (protein)
chain: ALSQSVPFSATELLLASAIFCLVFWVLKGLRPRVPKGLKSPPEPWGWPLLGHVLTLGKNPHLALSRMSQRYGDVLQIRIGSTPVLVLSRLDTIRQALVRQGDDFKGRPDLYTSTLITDGQSLTFSTDSGPVWAARRRLAQNALNTFSIASDPASSSSCYLEEHVSKEAKALISRLQELMAGPGHFDPYNQVVVSVANVIGAMCFGQHFPESSDEMLSLVKNTHEFVETASSGNPLDFFPILRYLPNPALQRFKAFNQRFLWFLQKTVQEHYQDFDKNSVRDITGALFKHSKKGPRASGNLIPQEKIVNLVNDIFGAGFDTVTTAISWSLMYLVTKPEIQRKIQKELDTVIGRERRPRLSDRPQLPYLEAFILETFRHSSFLPFTIPHSTTRDTTLNGFYIPKKCCVFVNQWQVNHDPELWEDPSEFRPERFLTADGTAINKPLSEKMMLFGMGKRRCIGEVLAKWEIFLFLAILLQQLEFSVPPGVKVDLTPIYGLTMKHARCEHVQARLRFSIN
notes: human CYP1A2 expressed with NADPH P450 reductase in Escherichia coli DH5α; bacterial membranes; with NADPH P450 reductase
Turning to B1, in data set [2], the Km is 1.67 µM.

For orientation: Ki means the dissociation constant of the complex between target and ligand, obtained from inhibition or displacement. High values mean a looser hold on the target, low ones a stronger hold on the target. The Km is the substrate concentration at which the rate is half of its maximum.
